Results taken from ChEMBL document CHEMBL1129775, “Synthesis and evaluation of novel 1,5-Benzodiazepines as potent and selective CCK-B ligands. Effect of the substitution of the N-5 phenyl with alkyl groups” (Bioorg Med Chem Lett, 1996).

Legend:
[1] = target: T1, Cholecystokinin receptor type A (Rattus norvegicus, UniProt P30551); assay: Evaluated in vitro for Cholecystokinin type A receptor affinity by measuring its ability to displace tritiated CCK-8S bound on rat pancreas Cholecystokinin type A receptor
T1 sequence (P30551 whole entry): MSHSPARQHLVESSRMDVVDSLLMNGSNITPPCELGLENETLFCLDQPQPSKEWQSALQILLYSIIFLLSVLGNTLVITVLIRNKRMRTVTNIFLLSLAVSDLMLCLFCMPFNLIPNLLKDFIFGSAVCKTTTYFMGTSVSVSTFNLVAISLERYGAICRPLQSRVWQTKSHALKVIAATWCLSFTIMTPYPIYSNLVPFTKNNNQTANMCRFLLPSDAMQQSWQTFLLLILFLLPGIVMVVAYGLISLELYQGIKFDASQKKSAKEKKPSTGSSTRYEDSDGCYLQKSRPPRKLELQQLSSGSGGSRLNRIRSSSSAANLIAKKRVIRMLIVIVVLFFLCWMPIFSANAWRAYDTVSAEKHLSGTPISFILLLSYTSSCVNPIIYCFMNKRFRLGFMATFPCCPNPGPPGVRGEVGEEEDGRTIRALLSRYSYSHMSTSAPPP

Rattus norvegicus = organism: Rattus norvegicus; assay: Ratio of CCK-B receptor affinity and CCK-A receptor affinity

Ki [1] | Ratio (Rattus norvegicus) | SMILES
61.7 nM | 26 | CC(C)CCN1C(=O)C(NC(=O)Nc2ccccc2)C(=O)N(CCC(C)C)c2ccccc21
288 nM | 209 | CC(C)CCN1C(=O)C(NC(=O)Nc2ccccc2)C(=O)N(CC23CC4CC(CC(C4)C2)C3)c2ccccc21 (stereo unspecified)
1410 nM | 42 | CC(C)CCN1C(=O)C(NC(=O)Oc2ccccc2)C(=O)N(CC23CC4CC(CC(C4)C2)C3)c2ccccc21 (stereo unspecified)
229 nM | – | CC(CC1CCCC1)N1C(=O)C(NC(=O)Nc2ccccc2)C(=O)N(C(C)CC2CCCC2)c2ccccc21 (stereo unspecified)
2000 nM | 58 | O=C(Nc1ccccc1)NC1C(=O)N(CC23CC4CC(CC(C4)C2)C3)c2ccccc2N(CC23CC4CC(CC(C4)C2)C3)C1=O (stereo unspecified)
240 nM | 22 | O=C(Nc1cccc(Cl)c1)NC1C(=O)N(CC23CC4CC(CC(C4)C2)C3)c2ccccc2N(C2CCCCC2)C1=O (stereo unspecified)
1100 nM | 26 | O=C(NC1C(=O)N(CC23CC4CC(CC(C4)C2)C3)c2ccccc2N(C2CCCCC2)C1=O)Oc1ccccc1 (stereo unspecified)
794 nM | 28 | CC(C)CCN1C(=O)C(NC(=O)Oc2cccc(N(C)C)c2)C(=O)N(CCC(C)C)c2ccccc21

SMILES | Ki [1] | Ratio (Rattus norvegicus)
CC(C)CCN1C(=O)C(NC(=O)Nc2ccccc2)C(=O)N(Cc2ccccc2)c2ccccc21 (stereo unspecified) | 66.1 nM | 17
O=C(Nc1ccccc1)NC1C(=O)N(CC23CC4CC(CC(C4)C2)C3)c2ccccc2N(C2CCCCC2)C1=O (stereo unspecified) | 562 nM | 234
O=C(Nc1ccccc1)N[C@@H]1C(=O)N(CC23CC4CC(CC(C4)C2)C3)c2ccccc2N(c2ccccc2)C1=O (single isomer, unassigned; (+)) | 1120 nM | –
CC(C)CCN1C(=O)C(NC(=O)Nc2cccc(N(C)C)c2)C(=O)N(CCC(C)C)c2ccccc21 | 83.2 nM | 32
CC(C)CCN1C(=O)C(NC(=O)Oc2cccc(N(C)C)c2)C(=O)N(CC23CC4CC(CC(C4)C2)C3)c2ccccc21 (stereo unspecified) | 1580 nM | 209
CC(C)CCN1C(=O)C(NC(=O)Nc2cccc(N(C)C)c2)C(=O)N(CC23CC4CC(CC(C4)C2)C3)c2ccccc21 (stereo unspecified) | 955 nM | 170
